The record followed here is ChEMBL document CHEMBL3862033 (J Med Chem, 2016).

For assay [1], the target named is T1, 5-hydroxytryptamine receptor 1A (Homo sapiens) (UniProt P08908).
T1 sequence (whole entry): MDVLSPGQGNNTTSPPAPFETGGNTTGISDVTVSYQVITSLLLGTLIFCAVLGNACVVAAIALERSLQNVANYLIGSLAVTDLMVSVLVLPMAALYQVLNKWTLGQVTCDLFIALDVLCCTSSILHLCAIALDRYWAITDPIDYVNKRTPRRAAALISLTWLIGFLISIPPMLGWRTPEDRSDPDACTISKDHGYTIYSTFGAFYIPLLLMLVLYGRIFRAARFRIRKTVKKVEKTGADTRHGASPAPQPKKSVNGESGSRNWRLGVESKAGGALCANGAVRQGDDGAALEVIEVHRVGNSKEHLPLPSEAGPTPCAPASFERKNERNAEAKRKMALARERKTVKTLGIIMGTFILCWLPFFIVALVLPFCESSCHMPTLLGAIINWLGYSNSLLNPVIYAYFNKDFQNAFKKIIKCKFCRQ
The assay can be described thus: Displacement of [3H]WAY100635 from human 5-HT1AR expressed in CHO cell membranes at 10 uM incubated for 90 mins under dark condition by microbeta scintillation counting method relative to control. For orientation: In a radioligand displacement assay an active substance lowers the binding of a labelled ligand.

Assay [2] addresses 5-hydroxytryptamine receptor 1B (Homo sapiens) (UniProt P28222). The assay can be described thus: Displacement of [3H]5-CT from human 5-HT1BR expressed in HEK cell membranes at 10 uM incubated for 90 mins under dark condition by microbeta scintillation counting method relative to control. To be noted: HEK293.
For assay [3], the target named is 5-hydroxytryptamine receptor 1D (Homo sapiens) (UniProt P28221). As to the kind of experiment: Displacement of [3H]5-CT from human 5-HT1D receptor expressed in HEK-T cell membranes at 10 uM incubated for 90 mins under dark condition by microbeta scintillation counting method relative to control.
Assay [4] addresses 5-hydroxytryptamine receptor 1E (Homo sapiens) (UniProt P28566). The assay can be described thus: Displacement of [3H]5-HT from human 5-HT1E receptor expressed in HEK cell membranes at 10 uM incubated for 90 mins under dark condition by microbeta scintillation counting method relative to control. To be noted: HEK293.
In assay [5] the target is 5-hydroxytryptamine receptor 4 (Homo sapiens) (UniProt Q13639). The assay can be described thus: Displacement of [3H]GR113808 from human 5-HT4 receptor at 10 uM incubated for 90 mins under dark condition by microbeta scintillation counting method relative to control.
The target of assay [6] is 5-hydroxytryptamine receptor 6 (Homo sapiens) (UniProt P50406). The assay can be described thus: Displacement of [3H]LSD from human 5-HT6 receptor expressed in HEK cell membranes at 10 uM incubated for 90 mins under dark condition by microbeta scintillation counting method relative to control. To be noted: HEK293.
Assay [7] concerns the target 5-hydroxytryptamine receptor 7 (Homo sapiens) (UniProt P34969). As to the kind of experiment: Displacement of [3H]LSD from human 5-HT7A receptor expressed in HEK cell membranes at 10 uM incubated for 90 mins under dark condition by microbeta scintillation counting method relative to control. To be noted: HEK293.
The target in assay [8] is T2, 5-hydroxytryptamine receptor 3A (Homo sapiens) (UniProt P46098).
T2 sequence (whole entry): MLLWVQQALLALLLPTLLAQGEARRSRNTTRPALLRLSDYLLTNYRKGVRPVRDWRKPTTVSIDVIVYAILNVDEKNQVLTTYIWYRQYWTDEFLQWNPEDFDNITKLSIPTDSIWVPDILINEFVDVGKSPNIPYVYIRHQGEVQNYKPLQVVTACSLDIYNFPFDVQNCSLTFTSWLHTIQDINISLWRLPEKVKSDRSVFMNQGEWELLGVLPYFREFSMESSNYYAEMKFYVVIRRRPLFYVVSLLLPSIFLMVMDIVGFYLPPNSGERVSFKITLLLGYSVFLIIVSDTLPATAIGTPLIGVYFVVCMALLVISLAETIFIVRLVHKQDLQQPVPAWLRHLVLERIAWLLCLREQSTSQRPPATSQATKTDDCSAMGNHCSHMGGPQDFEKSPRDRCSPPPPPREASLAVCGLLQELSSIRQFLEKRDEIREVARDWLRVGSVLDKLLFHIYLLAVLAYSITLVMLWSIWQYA
As to the kind of experiment: Displacement of [3H]GR65630 from human 5-HT3 receptor expressed in HEK-T cell membranes at 10 uM incubated for 90 mins under dark condition by microbeta scintillation counting method relative to control.

The target of assay [9] is 5-hydroxytryptamine receptor 5A (Homo sapiens) (UniProt P47898). The assay can be described thus: Displacement of [3H]LSD from human 5-HT5A receptor expressed in Flp-In-CHO cell membranes incubated for 90 mins under dark condition by microbeta scintillation counting method relative to control. The arrangement: concentration or dose not given beside the values.
The target of assay [10] is T3, 5-hydroxytryptamine receptor 2A (Homo sapiens, UniProt P28223). The assay can be described thus: Displacement of [3H]ketanserin from human 5-HT2A receptor expressed in HEK-T cell membranes at 10 uM incubated for 90 mins under dark condition by microbeta scintillation counting method relative to control.
In assay [11] the target is T4, 5-hydroxytryptamine receptor 2B (Homo sapiens, UniProt P41595). As to the kind of experiment: biochemical. The assay is classed as cell-based, HEK293.
The target in assay [12] is T5, 5-hydroxytryptamine receptor 2C (Homo sapiens, UniProt P28335).
T5 sequence (P28335 whole entry): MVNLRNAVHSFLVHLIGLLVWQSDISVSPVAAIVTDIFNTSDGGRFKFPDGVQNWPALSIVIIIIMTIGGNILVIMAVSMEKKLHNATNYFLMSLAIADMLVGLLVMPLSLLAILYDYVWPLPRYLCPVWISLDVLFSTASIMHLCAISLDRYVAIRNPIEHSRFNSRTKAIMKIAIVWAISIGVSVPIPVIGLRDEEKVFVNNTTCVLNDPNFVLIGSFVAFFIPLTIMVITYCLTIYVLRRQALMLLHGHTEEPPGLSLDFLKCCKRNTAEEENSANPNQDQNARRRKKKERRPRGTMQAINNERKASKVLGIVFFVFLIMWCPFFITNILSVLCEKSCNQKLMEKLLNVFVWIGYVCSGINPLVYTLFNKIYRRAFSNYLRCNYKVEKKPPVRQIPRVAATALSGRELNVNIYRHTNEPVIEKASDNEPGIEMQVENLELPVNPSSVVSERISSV
As to the kind of experiment: Displacement of [3H]mesulergine from human 5-HT2CR expressed in Flp-In HEK cell membranes incubated for 90 mins under dark condition by microbeta scintillation counting method. The arrangement: species or system HEK293.

In assay [13] the target is T6, 5-hydroxytryptamine receptor 2C (Homo sapiens) (UniProt P28335).
T6 sequence (whole entry): T5 sequence (P28335 whole entry)
As to the kind of experiment: Displacement of [3H]mesulergine from human 5-HT2CR expressed in Flp-In HEK cell membranes at 10 uM incubated for 90 mins under dark condition by microbeta scintillation counting method relative to control. To be noted: HEK293.

For assay [14], the target named is T7, Adenosine receptor A1 (Homo sapiens) (UniProt P30542).
T7 sequence (whole entry): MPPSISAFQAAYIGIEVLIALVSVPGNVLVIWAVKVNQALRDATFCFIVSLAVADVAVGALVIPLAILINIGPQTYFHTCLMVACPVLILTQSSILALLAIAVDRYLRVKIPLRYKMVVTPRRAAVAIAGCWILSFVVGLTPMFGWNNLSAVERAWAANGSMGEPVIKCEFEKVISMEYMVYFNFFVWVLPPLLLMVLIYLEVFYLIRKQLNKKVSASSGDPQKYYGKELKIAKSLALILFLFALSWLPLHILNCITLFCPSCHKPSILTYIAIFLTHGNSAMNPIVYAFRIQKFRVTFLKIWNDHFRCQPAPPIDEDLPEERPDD
As to the kind of experiment: Displacement of [3H]N6-phenylisopropyladenosine from recombinant human A1AR expressed in CHO cell membranes at 10 uM after 60 mins by liquid scintillation counting method relative to control.

For assay [15], the target named is T8, Adenosine receptor A2a (Homo sapiens, UniProt P29274). As to the kind of experiment: Displacement of [3 H]2-[p-(2-carboxyethyl)phenyl-ethylamino]-5'-N-ethylcarboxamidoadenosine from recombinant human adenosine receptor A2A expressed in HEK293 cell membranes at 10 uM after 60 mins by liquid scintillation counting method relative to control.
Assay [16] concerns the target T3, 5-hydroxytryptamine receptor 2A. The assay can be described thus: Displacement of [3H]ketanserin from human 5-HT2A receptor expressed in HEK-T cell membranes incubated for 90 mins under dark condition by microbeta scintillation counting method.
In assay [17] the target is T4, 5-hydroxytryptamine receptor 2B. To be noted: HEK293, at 10 µM.
The target of assay [18] is T9, Adenosine receptor A1 (Homo sapiens, UniProt P30542).
T9 sequence (P30542 whole entry): T7 sequence (whole entry)
The assay can be described thus: Displacement of [3H]N6-phenylisopropyladenosine from recombinant human A1AR expressed in CHO cell membranes after 60 mins by liquid scintillation counting method.

In assay [19] the target is T8, Adenosine receptor A2a. The assay can be described thus: Displacement of [3 H]2-[p-(2-carboxyethyl)phenyl-ethylamino]-5'-N-ethylcarboxamidoadenosine from recombinant human adenosine receptor A2A expressed in HEK293 cell membranes after 60 mins by liquid scintillation counting method.
Assay [20] has as its target T10, Adenosine receptor A3 (Homo sapiens, UniProt P0DMS8).
T10 sequence (P0DMS8 whole entry): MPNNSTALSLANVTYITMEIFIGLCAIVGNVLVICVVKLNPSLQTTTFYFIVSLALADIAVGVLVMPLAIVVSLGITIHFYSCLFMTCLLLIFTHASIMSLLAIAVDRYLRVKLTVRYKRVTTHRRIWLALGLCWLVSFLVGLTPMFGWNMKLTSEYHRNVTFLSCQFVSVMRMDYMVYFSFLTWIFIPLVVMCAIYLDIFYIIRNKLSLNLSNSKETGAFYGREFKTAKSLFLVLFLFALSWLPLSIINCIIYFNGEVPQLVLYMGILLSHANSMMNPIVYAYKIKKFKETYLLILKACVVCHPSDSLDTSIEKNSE
The assay can be described thus: Displacement of [125l]N 6-(4-amino-3-iodobenzyl)adenosine-5'-N-methyluronamide from recombinant human A3AR expressed in CHO cell membranes after 60 mins by gamma counting method.

T3 sequence (P28223 whole entry): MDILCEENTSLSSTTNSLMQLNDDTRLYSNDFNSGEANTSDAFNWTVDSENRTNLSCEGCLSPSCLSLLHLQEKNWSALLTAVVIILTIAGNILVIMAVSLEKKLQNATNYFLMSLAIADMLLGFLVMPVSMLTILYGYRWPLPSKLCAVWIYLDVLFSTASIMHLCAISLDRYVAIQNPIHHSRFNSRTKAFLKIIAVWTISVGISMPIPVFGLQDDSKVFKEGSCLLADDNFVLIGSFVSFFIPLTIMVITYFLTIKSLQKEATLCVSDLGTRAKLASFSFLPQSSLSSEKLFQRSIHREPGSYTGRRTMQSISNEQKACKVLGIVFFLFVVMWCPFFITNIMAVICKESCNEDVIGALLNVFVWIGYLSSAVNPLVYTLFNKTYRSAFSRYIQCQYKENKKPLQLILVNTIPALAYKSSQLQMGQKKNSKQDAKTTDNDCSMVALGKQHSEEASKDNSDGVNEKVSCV
5-hydroxytryptamine receptor 5A (Homo sapiens), sequence (P47898 whole entry): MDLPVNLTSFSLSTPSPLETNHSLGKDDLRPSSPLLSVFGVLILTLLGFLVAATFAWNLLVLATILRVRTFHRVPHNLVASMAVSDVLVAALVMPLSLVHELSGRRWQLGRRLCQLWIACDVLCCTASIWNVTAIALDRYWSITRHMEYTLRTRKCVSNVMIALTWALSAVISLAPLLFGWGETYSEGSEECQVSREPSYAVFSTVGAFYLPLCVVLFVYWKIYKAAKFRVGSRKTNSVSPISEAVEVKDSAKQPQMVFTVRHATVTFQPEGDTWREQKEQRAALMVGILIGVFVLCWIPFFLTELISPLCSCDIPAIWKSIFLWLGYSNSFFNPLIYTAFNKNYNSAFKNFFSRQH
5-hydroxytryptamine receptor 6 (Homo sapiens), sequence (P50406 whole entry): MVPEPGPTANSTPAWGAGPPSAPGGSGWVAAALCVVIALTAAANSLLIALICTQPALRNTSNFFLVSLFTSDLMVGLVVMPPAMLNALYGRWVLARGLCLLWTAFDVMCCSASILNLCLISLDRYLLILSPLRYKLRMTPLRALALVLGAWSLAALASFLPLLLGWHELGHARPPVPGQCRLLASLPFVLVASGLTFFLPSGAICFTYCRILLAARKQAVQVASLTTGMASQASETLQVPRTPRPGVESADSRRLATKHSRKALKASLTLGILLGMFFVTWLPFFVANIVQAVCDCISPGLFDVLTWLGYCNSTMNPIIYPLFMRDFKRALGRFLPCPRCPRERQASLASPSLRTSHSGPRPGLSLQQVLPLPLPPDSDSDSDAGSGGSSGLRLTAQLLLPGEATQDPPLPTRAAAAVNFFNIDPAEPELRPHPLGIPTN
T4 sequence (P41595 whole entry): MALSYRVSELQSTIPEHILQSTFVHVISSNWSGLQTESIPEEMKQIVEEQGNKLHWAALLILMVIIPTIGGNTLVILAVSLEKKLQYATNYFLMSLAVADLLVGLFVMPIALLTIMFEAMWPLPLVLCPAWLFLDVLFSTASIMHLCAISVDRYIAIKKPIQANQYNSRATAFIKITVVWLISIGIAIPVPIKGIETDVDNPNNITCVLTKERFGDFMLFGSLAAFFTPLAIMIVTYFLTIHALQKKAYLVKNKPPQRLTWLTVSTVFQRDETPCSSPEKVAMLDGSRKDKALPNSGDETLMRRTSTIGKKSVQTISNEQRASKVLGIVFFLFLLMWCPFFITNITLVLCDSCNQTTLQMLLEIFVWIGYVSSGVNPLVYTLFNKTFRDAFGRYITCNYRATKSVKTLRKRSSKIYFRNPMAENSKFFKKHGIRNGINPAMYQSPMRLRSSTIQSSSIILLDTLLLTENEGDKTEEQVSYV
5-hydroxytryptamine receptor 1B (Homo sapiens), sequence (P28222 whole entry): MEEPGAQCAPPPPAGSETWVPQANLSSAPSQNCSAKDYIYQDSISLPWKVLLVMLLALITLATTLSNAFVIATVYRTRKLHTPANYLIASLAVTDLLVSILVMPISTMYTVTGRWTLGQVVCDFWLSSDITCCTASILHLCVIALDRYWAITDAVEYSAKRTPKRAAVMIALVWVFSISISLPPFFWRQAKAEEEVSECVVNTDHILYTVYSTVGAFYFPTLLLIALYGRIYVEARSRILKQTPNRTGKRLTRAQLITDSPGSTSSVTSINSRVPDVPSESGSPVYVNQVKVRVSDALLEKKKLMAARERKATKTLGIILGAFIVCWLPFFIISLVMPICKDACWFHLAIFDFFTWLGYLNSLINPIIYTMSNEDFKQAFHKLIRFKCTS
5-hydroxytryptamine receptor 1D (Homo sapiens), sequence (P28221 whole entry): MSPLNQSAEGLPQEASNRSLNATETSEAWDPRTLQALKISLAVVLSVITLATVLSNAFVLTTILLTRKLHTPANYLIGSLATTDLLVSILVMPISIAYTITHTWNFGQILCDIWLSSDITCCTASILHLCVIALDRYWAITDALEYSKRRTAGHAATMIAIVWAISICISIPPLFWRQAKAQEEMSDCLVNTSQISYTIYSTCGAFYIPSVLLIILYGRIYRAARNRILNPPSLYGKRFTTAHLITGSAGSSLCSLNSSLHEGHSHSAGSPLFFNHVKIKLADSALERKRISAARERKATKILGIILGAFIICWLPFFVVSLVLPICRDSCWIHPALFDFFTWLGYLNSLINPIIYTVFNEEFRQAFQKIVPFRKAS
5-hydroxytryptamine receptor 1E (Homo sapiens), sequence (P28566 whole entry): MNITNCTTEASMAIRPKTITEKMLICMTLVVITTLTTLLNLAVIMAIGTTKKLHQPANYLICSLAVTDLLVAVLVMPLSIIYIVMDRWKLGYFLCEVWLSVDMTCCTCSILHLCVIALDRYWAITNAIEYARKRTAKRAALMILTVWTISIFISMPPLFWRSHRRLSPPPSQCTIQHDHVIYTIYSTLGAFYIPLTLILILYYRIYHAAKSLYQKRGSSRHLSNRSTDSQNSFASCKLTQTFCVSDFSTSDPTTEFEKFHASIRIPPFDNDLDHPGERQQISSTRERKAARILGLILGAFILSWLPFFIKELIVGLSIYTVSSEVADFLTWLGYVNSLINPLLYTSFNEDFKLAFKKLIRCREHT
T8 sequence (P29274 whole entry): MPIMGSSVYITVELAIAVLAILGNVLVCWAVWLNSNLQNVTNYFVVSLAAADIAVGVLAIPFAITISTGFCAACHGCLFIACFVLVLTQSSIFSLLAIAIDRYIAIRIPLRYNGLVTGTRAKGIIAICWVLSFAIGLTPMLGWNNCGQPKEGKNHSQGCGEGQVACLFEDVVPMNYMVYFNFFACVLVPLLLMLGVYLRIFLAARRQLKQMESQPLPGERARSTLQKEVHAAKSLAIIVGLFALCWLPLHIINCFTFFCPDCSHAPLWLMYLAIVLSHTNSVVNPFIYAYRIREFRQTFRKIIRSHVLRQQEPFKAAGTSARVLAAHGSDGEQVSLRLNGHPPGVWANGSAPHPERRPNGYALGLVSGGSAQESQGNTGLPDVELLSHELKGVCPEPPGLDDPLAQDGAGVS
5-hydroxytryptamine receptor 4 (Homo sapiens), sequence (Q13639 whole entry): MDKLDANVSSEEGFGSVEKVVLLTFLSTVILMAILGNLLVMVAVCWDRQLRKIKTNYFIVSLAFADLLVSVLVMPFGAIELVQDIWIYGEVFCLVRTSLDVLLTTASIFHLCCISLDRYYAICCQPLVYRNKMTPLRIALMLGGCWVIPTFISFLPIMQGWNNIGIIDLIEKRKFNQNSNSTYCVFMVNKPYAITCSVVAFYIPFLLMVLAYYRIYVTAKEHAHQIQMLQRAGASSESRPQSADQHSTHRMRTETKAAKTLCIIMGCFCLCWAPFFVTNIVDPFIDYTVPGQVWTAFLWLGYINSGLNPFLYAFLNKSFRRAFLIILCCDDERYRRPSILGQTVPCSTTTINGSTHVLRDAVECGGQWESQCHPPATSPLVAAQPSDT
5-hydroxytryptamine receptor 7 (Homo sapiens), sequence (P34969 whole entry): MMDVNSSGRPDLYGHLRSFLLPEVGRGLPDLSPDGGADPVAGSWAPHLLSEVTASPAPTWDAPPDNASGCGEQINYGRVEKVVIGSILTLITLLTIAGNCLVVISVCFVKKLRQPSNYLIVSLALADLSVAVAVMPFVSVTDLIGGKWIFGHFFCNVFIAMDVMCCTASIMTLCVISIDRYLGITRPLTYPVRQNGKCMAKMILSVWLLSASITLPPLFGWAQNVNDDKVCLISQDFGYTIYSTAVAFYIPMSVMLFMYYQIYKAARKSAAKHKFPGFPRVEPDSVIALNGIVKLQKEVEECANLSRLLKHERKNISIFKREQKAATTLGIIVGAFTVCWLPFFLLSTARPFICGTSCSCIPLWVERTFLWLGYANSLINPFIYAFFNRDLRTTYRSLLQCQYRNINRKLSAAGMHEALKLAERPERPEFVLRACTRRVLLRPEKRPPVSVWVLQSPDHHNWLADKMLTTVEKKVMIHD

One may read the inhibition as the relative decrease from the control value, in per cent. As a reminder, the Ki is the equilibrium dissociation constant of an inhibitor or competing ligand from its target. On to `CN(C)c1nc(Cl)nc2c1ncn2[C@H]1[C@H](O)[C@H](O)[C@]2(CO)C[C@H]12`, for which the inhibition in assay [1], in assay [2], in assay [3], in assay [4], in assay [5] and in [6] was under 50% in each case. In addition, the inhibition in [7] was under 50%; in [8] it was under 50%; in assay [9] it was under 50%; in assay [10], under 10%; in assay [13], over 50%; in assay [14] it was 11%. Further, the results for the inhibition in [15] and in [17] were under 10% and over 50%, respectively. Further, the Ki in assay [11] was 4800 nM; in assay [12], 8100 nM; in [16] it was over 10000 nM.
As for `CC(=O)NCCCNC(=O)[C@@]12C[C@@H]1[C@@H](n1cnc3c(NC(C4CC4)C4CC4)nc(Cl)nc31)[C@H](O)[C@@H]2O`, the inhibition in assay [1], in assay [2], in [3], in [4], in assay [5] and in [6] was under 50% each time. Moreover, the inhibition in assay [7] is under 50%; in assay [8], under 50%; in assay [9] it was under 50%; in [10], under 10%; in assay [13], over 50%; in assay [14], 46%. The values for the inhibition in assay [15] and in assay [17] were 26% and over 50%, respectively. For the same compound, the Ki in [11] was 534 nM; in assay [12] it was 2310 nM; in assay [16] it was over 10000 nM.
For `CC[C@@H](Nc1nc(Cl)nc2c1ncn2[C@H]1[C@H](O)[C@H](O)[C@]2(CO)C[C@H]12)C1CC1`, the inhibition in [1], in assay [2], in assay [3], in assay [4], in assay [5] and in assay [6] was under 50% in each case. In addition, the inhibition in [7] is under 50%; in assay [8], under 50%; in assay [9], under 50%; in [10] it was under 10%; in [13], over 50%. In addition, the Ki in assay [12] is 371 nM; in assay [18], 76 nM; in [19] it was 1880 nM; in [16], over 10000 nM.
On to `CC[C@H](Nc1nc(Cl)nc2c1ncn2[C@H]1[C@H](O)[C@H](O)[C@]2(CO)C[C@H]12)C1CC1`, for which the inhibition in assay [1], in assay [2], in [3], in assay [4], in [5] and in assay [6] was under 50% in each case. Moreover, the inhibition in [7] is under 50%; in assay [8], under 50%; in assay [9], under 50%; in assay [10], under 10%; in assay [13], over 50%. The Ki is 251 nM in [12], 117 nM in assay [18], 2950 nM in [19] and over 10000 nM in assay [16].
Turning to `CNC(=O)[C@@]12C[C@@H]1[C@@H](n1cnc3c(N(C)C)nc(Cl)nc31)[C@H](O)[C@@H]2O`, the inhibition in assay [1], in assay [2], in assay [3], in assay [4], in assay [5] and in assay [6] was under 50% in each case. Moreover, the inhibition in assay [7] is under 50%; in assay [8] it was under 50%; in assay [9], under 50%; in assay [10], under 10%; in [13], over 50%; in assay [14], 26%. Besides, the inhibition in [15] was under 10%; in assay [17], over 50%. Besides, the Ki is 2100 nM in assay [11], 4300 nM in [12], 1480 nM in [20] and over 10000 nM in assay [16].
